Assay results: US20240294541A1, “COMPOUNDS CONSTITUTING C20-MODIFIED SALINOMYCIN DERIVATIVES, A METHOD FOR OBTAINING THE SAME, A COMPOSITION CONTAINING THE SAME AND A USE OF SAID COMPOUNDS” (FILECLO SPOLKA Z OGRANICZONA ODPOWIEDZIALNOSCIA, priority 2021, published 2024)
pIC50: −log10 of the molar value. Where two headings read alike, the source gives them in different places.

Experiments:
Type in all cases: cell-based
[1] = tested on: MV-4-11 (human biphenotypic leukaemia); test: In vitro cytotoxicity, MTT assay, MV-4-11; settings: for IC50: Homo sapiens, MV4-11, read-out: IC50 (nM) MV4-11
[2] = tested on: BALB/3T3 (normal mouse fibroblasts); test: In vitro cytotoxicity, SRB assay, normal BALB/3T3 fibroblasts; settings: for IC50: Table 5, BALB/3T3 normal mouse fibroblasts, read-out: IC50 (nM) BALB3T3 normal cells; for pIC50: Mus musculus, BALB/3T3, normal cells, 72 h with compound, SRB, n/a = non-active compound, read-out: BALB/3T3 IC50
[3] = tested on: A2780Cis (cisplatin-resistant human ovarian cancer); test: In vitro cytotoxicity, SRB assay, A2780Cis; settings: for IC50: Homo sapiens, A2780cis
cancer cells = test: In vitro cytotoxic activity on the panel of cancer cell lines (MTT/SRB), general statements; settings: for anti-proliferative effect compared to that of the parent compound: Tables 3.1, 3.2, 4 and 5, parent compound salinomycin
[4] = tested on: SNU-16 (human gastric cancer); test: cells; settings: for pIC50: Homo sapiens, SNU-16, 72 h with compound, MTT, n/a = non-active compound, read-out: SNU-16 IC50; for SNU-16 SI: selectivity coefficient vs normal BALB/3T3 cells
[5] = tested on: MIA PaCa-2 (human pancreatic cancer); test: cells; settings: for pIC50: Homo sapiens, MIA PaCa-2, 72 h with compound, SRB, n/a = non-active compound, read-out: MIA PaCa-2 IC50; for MIA PaCa-2 SI: selectivity coefficient vs normal BALB/3T3 cells
[6] = tested on: A2780 (human ovarian cancer); test: In vitro cytotoxicity, SRB assay, A2780; settings: for pIC50: Homo sapiens, A2780, 72 h with compound, SRB, n/a = non-active compound, read-out: A2780 IC50; for A2780 SI: selectivity coefficient vs normal BALB/3T3 cells
Hs294T (human melanoma) = test: cells; settings: for pIC50: Homo sapiens, Hs 294T, 72 h with compound, SRB, n/a = non-active compound, read-out: Hs294T IC50; for Hs294T SI: selectivity coefficient vs normal BALB/3T3 cells
[7] = tested on: PFSK-1 (malignant primitive neuroectodermal tumour); test: In vitro cytotoxicity, SRB assay, PFSK-1; settings: for pIC50: Homo sapiens, PFSK-1, 72 h with compound, SRB, n/a = non-active compound, read-out: PFSK-1 IC50; for PFSK-1 SI: selectivity coefficient vs normal BALB/3T3 cells
A375 (human melanoma) = test: In vitro cytotoxicity, SRB assay, A375; settings: for pIC50: Homo sapiens, A-375, 72 h with compound, SRB, n/a = non-active compound, read-out: A375 IC50; for A375 SI: selectivity coefficient vs normal BALB/3T3 cells
[8] = tested on: KG-1 (human acute myeloid leukaemia); test: In vitro cytotoxicity, MTT assay, KG-1; settings: for pIC50: Homo sapiens, 72 h with compound, MTT, n/a = non-active compound; for KG-1 SI: selectivity coefficient vs normal BALB/3T3 cells
[9] = tested on: NCI-H23 (human lung cancer); test: In vitro cytotoxicity, SRB assay, NCI-H23; settings: for pIC50: Homo sapiens, NCI-H23, 72 h with compound, SRB, n/a = non-active compound, read-out: NCI-H23 IC50; for NCI-H23 SI: selectivity coefficient vs normal BALB/3T3 cells
[10] = tested on: PLC/PRF/5 (human liver cancer); test: cells; settings: for pIC50: Homo sapiens, PLC-PRF-5, 72 h with compound, SRB, n/a = non-active compound, read-out: PLC/PRF/5 IC50; for PLC/PRF/5 SI: selectivity coefficient vs normal BALB/3T3 cells
[11] = 72 h, read-out: A2780Cis IC50 (nM)

Compound	SI MV4-11 [1]	IC50 [1] [nM]	IC50 [2] [nM]	SI A2780Cis [3]	IC50 ([3]; read-out: IC50 (nM) A2780Cis) [nM]	anti-proliferative effect compared to that of the parent compound (cancer cells)	pIC50 [4]	SNU-16 SI [4]	pIC50 [5]	MIA PaCa-2 SI [5]	pIC50 [6]	A2780 SI [6]	pIC50 (Hs294T (human melanoma))	Hs294T SI (Hs294T (human melanoma))	pIC50 [7]	PFSK-1 SI [7]	pIC50 (A375 (human melanoma))	A375 SI (A375 (human melanoma))	pIC50 [2]	pIC50 [8]	further results
CC[C@@H](C(=O)[C@@H](C)[C@@H](O)[C@H](C)[C@@H]1O[C@@H]([C@@H](CC)C(=O)O)CC[C@@H]1C)[C@H]1O[C@]2(C=C[C@@H](NC(=O)C3CCC3)[C@]3(CC[C@@](C)([C@H]4CC[C@](O)(CC)[C@H](C)O4)O3)O2)[C@H](C)C[C@@H]1C [FLC-00463-1•Na]	96.5	1.98	191	266.3	0.72	several times more potent compared to that of the parent compound															
CCCCCCCCNC(=O)N[C@@H]1C=C[C@]2(O[C@H]([C@@H](CC)C(=O)[C@@H](C)[C@@H](O)[C@H](C)[C@@H]3O[C@@H]([C@@H](CC)C(=O)O)CC[C@@H]3C)[C@@H](C)C[C@H]2C)O[C@@]12CC[C@@](C)([C@H]1CC[C@](O)(CC)[C@H](C)O1)O2 [FLC-00366-1]			115	550.8	0.21		8.06	13.3	7.35	2.5	9.05	128.0	6.67	0.5	8.34	25.3	7.16	1.7	6.94	7.39	KG-1 SI [8]: 2.8; pIC50 [9]: 8.24; NCI-H23 SI [9]: 19.8; A2780Cis RI [3]: 0.2; A2780Cis SI [3]: 550.8; IC50 [3, 11]: 0.21 nM; biological properties (IC50, SI) compared to the corresponding epi compounds (cancer cells; table 5 comparative examples, retained vs inverted C20 configuration): improved biological properties compared to their counterparts with a configuration conversion; pIC50 [10]: 8.25; PLC/PRF/5 SI [10]: 20.4
CC[C@@H](C(=O)[C@@H](C)[C@@H](O)[C@H](C)[C@@H]1O[C@@H]([C@@H](CC)C(=O)O)CC[C@@H]1C)[C@H]1O[C@]2(C=C[C@@H](NS(=O)(=O)c3c(C)noc3C)[C@]3(CC[C@@](C)([C@H]4CC[C@](O)(CC)[C@H](C)O4)O3)O2)[C@H](C)C[C@@H]1C [FLC-00506-1•Na]	35.3	2.62	92.5	100.3	0.92	several times more potent compared to that of the parent compound															
CC[C@@H](C(=O)[C@@H](C)[C@@H](O)[C@H](C)[C@@H]1O[C@@H]([C@@H](CC)C(=O)O)CC[C@@H]1C)[C@H]1O[C@]2(C=C[C@@H](NC(=O)NC3CCC3)[C@]3(CC[C@@](C)([C@H]4CC[C@](O)(CC)[C@H](C)O4)O3)O2)[C@H](C)C[C@@H]1C [FLC-00341-1 Na]						several times more potent compared to that of the parent compound	7.57	3.5	7.26	1.7	8.79	59.2	5.79	0.1	7.29	1.9	6.53	0.3	7.02	7.34	KG-1 SI [8]: 2.1; pIC50 [9]: 6.50; NCI-H23 SI [9]: 0.3; A2780Cis RI [3]: 0.8; A2780Cis SI [3]: 73.9; IC50 [3, 11]: 1.3 nM; pIC50 [10]: 7.26; PLC/PRF/5 SI [10]: 1.8
CC[C@@H](C(=O)[C@@H](C)[C@@H](O)[C@H](C)[C@@H]1O[C@@H]([C@@H](CC)C(=O)O)CC[C@@H]1C)[C@H]1O[C@]2(C=C[C@@H](NC(=O)C(=O)NCc3ccccc3OC)[C@]3(CC[C@@](C)([C@H]4CC[C@](O)(CC)[C@H](C)O4)O3)O2)[C@H](C)C[C@@H]1C [FLC-00491-1•Na]	65.3	6.3	411	79.2	5.19	several times more potent compared to that of the parent compound															
